Experimental data taken from patent publication US10610520B2, “Heterocyclic compound” (Takeda Pharmaceutical Company Limited, priority 2016, dated 2020).

molecular target: T1, His-hMAGL (recombinant polyhistidine tagged human MAGL protein) (Homo sapiens, UniProt Q99685); test: Measurement of MAGL inhibitory activity (arachidonic acid production from 2-arachidonylglycerol, RapidFire-mass spectrometry); format: biochemical; conditions: MAGL inhibitory rate, test compound 10 μM, 60 min preincubation, 2-arachidonylglycerol substrate
T1 construct: made in house; host or cells: E. coli BL21(DE3)
T1 sequence (Q99685 1-303): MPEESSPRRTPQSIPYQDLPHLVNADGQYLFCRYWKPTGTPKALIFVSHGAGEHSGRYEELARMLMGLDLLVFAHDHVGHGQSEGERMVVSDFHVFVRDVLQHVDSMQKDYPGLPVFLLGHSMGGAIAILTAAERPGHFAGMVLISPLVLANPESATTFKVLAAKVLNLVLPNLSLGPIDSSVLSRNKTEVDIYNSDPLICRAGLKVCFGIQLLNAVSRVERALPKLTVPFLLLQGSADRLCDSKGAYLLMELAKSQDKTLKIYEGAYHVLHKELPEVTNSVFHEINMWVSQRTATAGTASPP
Protocol: The His-hMAGL obtained above was diluted with enzyme reaction buffer (10 mM Tris-HCl, pH 7.5, 1 mM EDTA, 0.025 (w/v) % Triton X-100, 0.01% Bovine serum albumin) to a concentration of 7.5 ng/mL. […] Thereafter, to each well was added 5 μL of 150 μM 2-arachidonylglycerol (Tocris Bioscience), and the mixture was incubated at room temperature for 10 min. Then, 10 μL of 2% formic acid (Wako Pure Chemical Industries, Ltd.) was added to stop the reaction. Furthermore, acetonitrile (50 μL) containing 3 μM arachidonic acid-d8 (Cayman Chemical Company) was added and the mixture was stirred.
The amount of arachidonic acid in the obtained enzyme reaction mixture was calculated by measuring by RapidFire-mass spectrometry and correcting by the amount of arachidonic acid-d8. High Throughput online solid phase extraction was performed using RapidFire 300™ system (Agilent Technologies, Inc.). Samples were loaded on SPE C4 cartridge (Agilent Technologies, Inc.) and desalted with 0.2 (v/v) % acetic acid (Wako Pure Chemical Industries, Ltd.) in ultrapure water/acetonitrile (70/30, v/v) at a flow rate of 1.5 mL/min, eluted at a flow rate of 0.5 mL/min with 0.2 (v/v) % acetic acid dissolved in acetonitrile/ultrapure water (90/10, v/v), and injected into the mass spectrometry part. The injection needle was washed with ultrapure water (500 millisecond) and acetonitrile (500 millisecond) to minimize carry-over. […] The RapidFire300 system was controlled by RapidFire UI software version 3.6 (Agilent Technologies, Inc.).
The mass spectrometry of the resultant product was performed using API4000™ triple quadrupole mass spectrometer (AB SCIEX) equipped with an electrospray ion sauce (TurboIon Spray™) in a negative selected reaction monitoring (SRM) mode. The conditions of SRM are shown below. The parameters of the instrument were optimized as follows: capillary temperature 600° C., ion spray voltage −4.5 kV, collision gas 8, curtain gas 15 psi, ion source gas 1 60 psi, ion source gas 2 60 psi. The mass spectrometer was controlled by Analyst™ software version 1.5.1 (AB SCIEX). The peak area integration was analyzed using RapidFire integrator software version 3.6 (Agilent Technologies, Inc.).
MAGL inhibitory rate (%) was calculated according to the following calculation formula. (1-(arachidonic acid production amount of test compound addition group−arachidonic acid production amount of enzyme-free group)÷(arachidonic acid production amount of test compound-free group−arachidonic acid production amount of enzyme-free group))×100

| inhibition at 10 µM [%] | SMILES |
| --- | --- |
| 101 | O=C1CCC2(CN(C(=O)N3CCC(C(c4ccccc4)c4ccccc4)CC3)C2)N1 [Example 112, 2-((4-(diphenylmethyl)piperidin-1-yl)carbonyl)-2,5-diazaspiro[3.4]octan-6-one] |
| 100 | O=C1NC2(CCN(C(=O)c3sc4cc(F)cc(Cl)c4c3Cl)C2)CO1 (stereo not drawn) [Example 332, 7-((3,4-dichloro-6-fluoro-1-benzothiophen-2-yl)carbonyl)-3-oxa-1,7-diazaspiro[4.4]nonan-2-one] |
| 99 | Cc1cc(F)ccc1-c1ccc2c(Cl)c(C(=O)N3CC4(CCC(=O)N4)C3)sc2c1 [Example 209, 2-((3-chloro-6-(4-fluoro-2-methylphenyl)-1-benzothiophen-2-yl)carbonyl)-2,5-diazaspiro[3.4]octan-6-one] |
| 99 | O=C1CCC2(CN(C(=O)c3sc4cc(F)ccc4c3Cl)C2)N1 [Example 140, 2-((3-chloro-6-fluoro-1-benzothiophen-2-yl)carbonyl)-2,5-diazaspiro[3.4]octan-6-one] |
| 96 | O=C1CCC2(CN(C(=O)c3ccc4c(ccn4-c4ccc(C(F)(F)F)cn4)c3)C2)N1 [Example 14, 2-((1-(5-(trifluoromethyl)pyridin-2-yl)-1H-indol-5-yl)carbonyl)-2,5-diazaspiro[3.4]octan-6-one] |
| 100 | O=C1NC2(CO1)CN(C(=O)c1sc3cc(C4=CCC(F)(F)CC4)cc(F)c3c1C1=CCC(F)(F)CC1)C2 [Example 310, 2-((3,6-bis(4,4-difluorocyclohex-1-en-1-yl)-4-fluoro-1-benzothiophen-2-yl)carbonyl)-7-oxa-2,5-diazaspiro[3.4]octan-6-one] |
| 101 | CC(C)(C)c1cccc(-c2ccc(C(=O)N3CC4(CCC(=O)N4)C3)cc2)c1 [Example 55, 2-((3′-tert-butylbiphenyl-4-yl)carbonyl)-2,5-diazaspiro[3.4]octan-6-one] |
| 98 | COC(=O)c1ccc(-c2ccc(CC3CCN(C(=O)N4CC5(CCC(=O)N5)C4)CC3)cc2)cc1 [Example 109, methyl 4′-((1-((6-oxo-2,5-diazaspiro[3.4]oct-2-yl)carbonyl)piperidin-4-yl)methyl)biphenyl-4-carboxylate] |
| 100 | O=C1CCC2(CN(C(=O)c3sc(-c4cccc(OCC(F)(F)F)c4)cc3Cl)C2)N1 [Example 178, 2-((3-chloro-5-(3-(2,2,2-trifluoroethoxy)phenyl)-2-thienyl)carbonyl)-2,5-diazaspiro[3.4]octan-6-one] |
| 100 | O=C1NC2(CO1)CN(C(=O)c1sc3cc(Br)ccc3c1Cl)C2 [Example 307, 2-((6-bromo-3-chloro-1-benzothiophen-2-yl)carbonyl)-7-oxa-2,5-diazaspiro[3.4]octan-6-one] |
| 101 | Cc1cccc(F)c1-c1ccc2c(Cl)c(C(=O)N3CC4(CCC(=O)N4)C3)sc2c1 [Example 203, 2-((3-chloro-6-(2-fluoro-6-methylphenyl)-1-benzothiophen-2-yl)carbonyl)-2,5-diazaspiro[3.4]octan-6-one] |
| 100 | O=C1NC2(CO1)CN(C(=O)c1sc3cc(Cl)ccc3c1Cl)C2 [Example 364, 2-((3,6-dichloro-1-benzothiophen-2-yl)carbonyl)-7-oxa-2,5-diazaspiro[3.4]octan-6-one] |
| 99 | Cc1ccc(-c2ccc3c(Cl)c(C(=O)N4CC5(CCC(=O)N5)C4)sc3c2)cc1 [Example 184, 2-((3-chloro-6-(4-methylphenyl)-1-benzothiophen-2-yl)carbonyl)-2,5-diazaspiro[3.4]octan-6-one] |
| 99 | O=C1CCC2(CN(C(=O)c3sc4c(C(F)(F)F)cccc4c3Cl)C2)N1 [Example 255, 2-((3-chloro-7-(trifluoromethyl)-1-benzothiophen-2-yl)carbonyl)-2,5-diazaspiro[3.4]octan-6-one] |

same assay, conditions: MAGL inhibitory rate, test compound 10 μM, 60 min preincubation, 2-arachidonylglycerol substrate; 10 µM

| % inhibition (10 μM) [%] | SMILES |
| --- | --- |
| 101 | O=C1NC2(CCN(C(=O)c3sc4cc(OC(F)(F)F)ccc4c3Cl)C2)CO1 (stereo not drawn) [Example 323, 7-((3-chloro-6-(trifluoromethoxy)-1-benzothiophen-2-yl)carbonyl)-3-oxa-1,7-diazaspiro[4.4]nonan-2-one] |
